The target of one test is T1, Tyk2 (Homo sapiens, UniProt P29597).
T1 construct: purchased Invitrogen
Put plainly: Tyk2 enzyme inhibition test (LANCE method). In kind it is biochemical. The note with it: for inhibition at 1 µM: test compound 1 μM, read-out: Inhibitory rate (%) Tyk2 1 μM; for inhibition at 10 µM: test compound 10 μM, read-out: Inhibitory rate (%) Tyk2 10 μM. The procedure: Tyk2 Enzyme Inhibition Test
(§1) Tyk2 enzyme inhibitory activity of test compounds was measured by LANCE method (PerkinElmer). First, a test compound diluted with assay buffer (50 mM HEPES (pH=7.5), 10 mM MgCl2, 1 mM EGTA, 2 mM DTT, 0.01% Tween20, 0.01% BSA) was added to 384-well plate at 2 μL each. Then, a Tyk2 (Invitrogen) solution and a fluorescence-labeled peptide substrate (ULight-JAK1, PerkinElmer) solution diluted with assay buffer at 375 ng/mL and 300 nM, respectively were added at 2 μL each. Then, enzyme reaction was started by adding 2 μL each of ATP solution prepared with assay buffer at 30 μM. After the reaction at room temperature for 1 hr, Detection Buffer (PerkinElmer) prepared to be 20 mM EDTA, 4 nM europium-labeled anti-phosphotyrosine antibody (PerkinElmer) was added at 6 μL each. After standing at room temperature for 1 hr, fluorescence intensity (excitation wavelength 340 nm, fluorescence wavelength 665 nm, delay time 100 microsecond) was measured by a plate reader, Envision (PerkinElmer). The inhibitory activity of each compound was calculated as relative value where fluorescence intensity of a well without enzyme is considered as 100% inhibition.

Another test concerns the target T2, JAK1 (Homo sapiens, UniProt P23458).
T2 construct: purchased Invitrogen
Put plainly: JAK1 enzyme inhibition test (LANCE method). The note with it: for inhibition at 1 µM: test compound 1 μM, read-out: Inhibitory rate (%) JAK1 1 μM. In kind it is biochemical. The procedure:
JAK1 Enzyme Inhibition Test
as §1, with “JAK1 enzyme” for “Tyk2 enzyme”, “a JAK1” for “a Tyk2”, “at 187.5” for “at 375”, “at 150” for “at 30”

The results in this text go back to patent US9371320B2, “Heterocyclic compound” (TAKEDA PHARMACEUTICAL COMPANY LIMITED, priority 2012, dated 2016).

T2 sequence (P23458 whole entry): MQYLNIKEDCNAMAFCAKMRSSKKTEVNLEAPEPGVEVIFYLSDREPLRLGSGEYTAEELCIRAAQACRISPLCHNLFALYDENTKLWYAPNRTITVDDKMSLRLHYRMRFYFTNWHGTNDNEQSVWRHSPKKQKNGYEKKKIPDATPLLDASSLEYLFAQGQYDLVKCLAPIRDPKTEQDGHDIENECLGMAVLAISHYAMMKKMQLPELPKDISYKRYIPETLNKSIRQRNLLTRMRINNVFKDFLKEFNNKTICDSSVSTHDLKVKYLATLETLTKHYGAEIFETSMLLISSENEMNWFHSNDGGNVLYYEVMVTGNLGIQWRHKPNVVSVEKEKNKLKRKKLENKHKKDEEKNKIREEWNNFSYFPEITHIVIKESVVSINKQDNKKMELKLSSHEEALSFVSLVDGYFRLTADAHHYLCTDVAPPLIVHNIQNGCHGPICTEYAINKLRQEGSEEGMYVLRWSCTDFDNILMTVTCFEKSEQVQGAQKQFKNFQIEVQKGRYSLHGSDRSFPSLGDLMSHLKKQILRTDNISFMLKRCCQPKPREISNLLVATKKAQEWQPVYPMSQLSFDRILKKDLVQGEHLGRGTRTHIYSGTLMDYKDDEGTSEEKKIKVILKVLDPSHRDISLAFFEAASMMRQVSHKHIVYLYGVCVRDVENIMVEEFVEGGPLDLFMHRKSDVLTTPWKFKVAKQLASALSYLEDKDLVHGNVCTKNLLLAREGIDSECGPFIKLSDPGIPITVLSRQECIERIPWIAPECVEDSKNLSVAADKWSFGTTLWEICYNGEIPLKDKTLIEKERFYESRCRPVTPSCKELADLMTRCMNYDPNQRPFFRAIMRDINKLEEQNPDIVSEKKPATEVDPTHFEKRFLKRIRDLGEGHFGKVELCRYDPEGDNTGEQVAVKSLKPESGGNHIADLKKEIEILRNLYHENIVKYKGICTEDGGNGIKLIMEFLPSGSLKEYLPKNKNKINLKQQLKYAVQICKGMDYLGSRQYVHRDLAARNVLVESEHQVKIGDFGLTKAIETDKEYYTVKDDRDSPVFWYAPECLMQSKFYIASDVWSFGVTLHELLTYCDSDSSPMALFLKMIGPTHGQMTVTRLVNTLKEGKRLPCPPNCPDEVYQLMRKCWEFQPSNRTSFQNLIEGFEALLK
T1 sequence (P29597 whole entry): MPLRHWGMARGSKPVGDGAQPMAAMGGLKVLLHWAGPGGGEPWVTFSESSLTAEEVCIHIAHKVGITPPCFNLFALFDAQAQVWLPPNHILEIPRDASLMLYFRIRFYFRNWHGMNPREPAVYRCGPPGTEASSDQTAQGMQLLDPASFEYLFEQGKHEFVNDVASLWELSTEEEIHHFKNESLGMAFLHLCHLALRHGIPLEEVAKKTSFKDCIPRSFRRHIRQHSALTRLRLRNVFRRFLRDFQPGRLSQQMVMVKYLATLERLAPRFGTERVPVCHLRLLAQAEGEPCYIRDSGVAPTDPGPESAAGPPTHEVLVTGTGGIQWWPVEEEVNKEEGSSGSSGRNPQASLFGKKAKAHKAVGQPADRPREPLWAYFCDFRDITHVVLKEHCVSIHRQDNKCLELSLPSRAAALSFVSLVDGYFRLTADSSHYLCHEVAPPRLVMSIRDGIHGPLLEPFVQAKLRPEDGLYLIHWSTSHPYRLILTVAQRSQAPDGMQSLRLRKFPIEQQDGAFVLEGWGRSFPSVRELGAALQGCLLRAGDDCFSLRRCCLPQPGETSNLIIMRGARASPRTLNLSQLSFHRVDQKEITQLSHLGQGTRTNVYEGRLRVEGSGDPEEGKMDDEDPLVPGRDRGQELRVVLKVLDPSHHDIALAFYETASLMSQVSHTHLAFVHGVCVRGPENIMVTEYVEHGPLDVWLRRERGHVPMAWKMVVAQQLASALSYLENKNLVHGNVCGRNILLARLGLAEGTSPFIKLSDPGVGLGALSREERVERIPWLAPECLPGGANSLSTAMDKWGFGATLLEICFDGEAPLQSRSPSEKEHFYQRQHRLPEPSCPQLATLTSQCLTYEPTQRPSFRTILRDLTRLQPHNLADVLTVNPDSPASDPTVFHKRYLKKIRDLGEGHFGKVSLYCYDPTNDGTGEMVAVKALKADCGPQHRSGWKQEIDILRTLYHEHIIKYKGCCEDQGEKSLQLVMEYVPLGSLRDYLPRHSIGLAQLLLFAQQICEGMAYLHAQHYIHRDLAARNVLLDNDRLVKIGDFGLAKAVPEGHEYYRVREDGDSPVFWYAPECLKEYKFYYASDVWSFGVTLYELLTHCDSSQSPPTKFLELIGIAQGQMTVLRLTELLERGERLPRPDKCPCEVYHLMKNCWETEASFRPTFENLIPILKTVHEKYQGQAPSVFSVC

`C[C@H]1CCC[C@H]1n1cc(-c2ccc(S(N)(=O)=O)cc2)c2c(=O)[nH]ccc21` (relative stereo) [Example 71, 4-(1-(cis-2-methylcyclopentyl)-4-oxo-4,5-dihydro-1H-pyrrolo[3,2-c]pyridin-3-yl)benzenesulfonamide]: the inhibition at 1 µM on Tyk2 worked out at 97%; at JAK1, 99%. The matching figures for `C[C@H]1CCC[C@H]1n1cc(-c2csc(C(N)=O)c2)c2c(=O)[nH]ccc21` (relative stereo) [Example 85, 4-(1-(cis-2-methylcyclopentyl)-4-oxo-4,5-dihydro-1H-pyrrolo[3,2-c]pyridin-3-yl)thiophene-2-carboxamide]: 100% and 90%. As to `O=c1[nH]ccc2c1c(-c1ccccc1)cn2C1CCCC1` [Example 1, 1-cyclopentyl-3-phenyl-1,5-dihydro-4H-pyrrolo[3,2-c]pyridin-4-one], the inhibition at 1 µM on Tyk2 was found to be 51%; at JAK1, 40%. The matching figures for `NS(=O)(=O)c1ccc(-c2cn(C3CCCC3)c3cc[nH]c(=O)c23)cc1` [Example 2, 4-(1-cyclopentyl-4-oxo-4,5-dihydro-1H-pyrrolo[3,2-c]pyridin-3-yl)benzenesulfonamide]: 97% and 99%. For `COC(=O)c1cc(-c2cn(C3CCCC3)c3cc[nH]c(=O)c23)cs1` [Example 3, methyl 4-(1-cyclopentyl-4-oxo-4,5-dihydro-1H-pyrrolo[3,2-c]pyridin-3-yl)thiophene-2-carboxylate] the same measures were 96% and 97%. For `NC(=O)c1cc(-c2cn(C3CCCC3)c3cc[nH]c(=O)c23)cs1` [Example 4, 4-(1-cyclopentyl-4-oxo-4,5-dihydro-1H-pyrrolo[3,2-c]pyridin-3-yl)thiophene-2-carboxamide] the same measures were 99% and 99%.

Take `O=c1[nH]ccc2c1c(-c1ccsc1)cn2C1CCCC1` [Example 5, 1-cyclopentyl-3-(3-thienyl)-1,5-dihydro-4H-pyrrolo[3,2-c]pyridin-4-one]: the inhibition at 1 µM at Tyk2 was determined as 96%; at JAK1, 97%.

In the case of `NS(=O)(=O)c1ccc(-c2nn(C3CCCCC3)c3cc[nH]c(=O)c23)cc1` [Example 6, 4-(1-cyclohexyl-4-oxo-4,5-dihydro-1H-pyrazolo[4,3-c]pyridin-3-yl)benzenesulfonamide], the inhibition at 1 µM at Tyk2 came out at 99%; on JAK1, 98%. As to `CCC(CC)n1cc(-c2csc(C(=O)OC)c2)c2c(=O)[nH]ccc21` [Example 7, methyl 4-(4-oxo-1-(pentan-3-yl)-4,5-dihydro-1H-pyrrolo[3,2-c]pyridin-3-yl)thiophene-2-carboxylate], the inhibition at 1 µM on Tyk2 was determined as 90%; at JAK1, 95%.

On to `CCC(CC)n1cc(-c2csc(C(N)=O)c2)c2c(=O)[nH]ccc21` [Example 8, 4-(4-oxo-1-(pentan-3-yl)-4,5-dihydro-1H-pyrrolo[3,2-c]pyridin-3-yl)thiophene-2-carboxamide], for which the inhibition at 1 µM on Tyk2 and at JAK1 was 98% each time. As to `CCC(CC)n1cc(-c2csc(C#N)c2)c2c(=O)[nH]ccc21` [Example 9, 4-(4-oxo-1-(pentan-3-yl)-4,5-dihydro-1H-pyrrolo[3,2-c]pyridin-3-yl)thiophene-2-carbonitrile], the inhibition at 1 µM on Tyk2 turned out to be 93%; on JAK1, 97%. For the compound `O=c1[nH]ccc2c(-c3ccccc3)nn(-c3ccccc3)c12` [Example 10, 1,3-diphenyl-1,6-dihydro-7H-pyrazolo[3,4-c]pyridin-7-one], the inhibition at 10 µM on Tyk2 came to 38%.

In the case of `O=c1[nH]ccc2c(-c3ccccc3)nn(-c3ccsc3)c12` [Example 11, 3-phenyl-1-(3-thienyl)-1,6-dihydro-7H-pyrazolo[3,4-c]pyridin-7-one], the inhibition at 1 µM at Tyk2 came to 66%; at JAK1, 55%.

Turning to `COC(=O)c1cc(-c2nn(C3CCCC3)c3cc[nH]c(=O)c23)cs1` [Example 12, methyl 4-(1-cyclopentyl-4-oxo-4,5-dihydro-1H-pyrazolo[4,3-c]pyridin-3-yl)thiophene-2-carboxylate], the inhibition at 1 µM on Tyk2 and on JAK1 was 98% each time.

As to `NC(=O)c1cc(-c2nn(C3CCCC3)c3cc[nH]c(=O)c23)cs1` [Example 13, 4-(1-cyclopentyl-4-oxo-4,5-dihydro-1H-pyrazolo[4,3-c]pyridin-3-yl)thiophene-2-carboxamide], the inhibition at 1 µM on Tyk2 and on JAK1 was 99% throughout. For `N#Cc1cc(-c2nn(C3CCCC3)c3cc[nH]c(=O)c23)cs1` [Example 14, 4-(1-cyclopentyl-4-oxo-4,5-dihydro-1H-pyrazolo[4,3-c]pyridin-3-yl)thiophene-2-carbonitrile], the inhibition at 1 µM on Tyk2 stood at 98%; on JAK1, 99%. As to `NS(=O)(=O)c1ccc(-c2nn(C3CCOCC3)c3cc[nH]c(=O)c23)cc1` [Example 15, 4-(4-oxo-1-(tetrahydro-2H-pyran-4-yl)-4,5-dihydro-1H-pyrazolo[4,3-c]pyridin-3-yl)benzenesulfonamide], the inhibition at 1 µM at Tyk2 stood at 97%; on JAK1 it was 99%. For `NS(=O)(=O)c1ccc(-c2cn(C3CCOCC3)c3cc[nH]c(=O)c23)cc1` [Example 16, 4-(4-oxo-1-(tetrahydro-2H-pyran-4-yl)-4,5-dihydro-1H-pyrrolo[3,2-c]pyridin-3-yl)benzenesulfonamide] the same measures were 88% and 93%. The matching figures for `CCC(COC)n1cc(-c2ccc(S(N)(=O)=O)cc2)c2c(=O)[nH]ccc21` (stereo not drawn) [Example 17, 4-(1-(1-methoxybutan-2-yl)-4-oxo-4,5-dihydro-1H-pyrrolo[3,2-c]pyridin-3-yl)benzenesulfonamide]: 69% and 87%. The matching figures for `NS(=O)(=O)c1ccc(-c2cn(C3CCOC3)c3cc[nH]c(=O)c23)cc1` (stereo not drawn) [Example 18, 4-(4-oxo-1-(tetrahydrofuran-3-yl)-4,5-dihydro-1H-pyrrolo[3,2-c]pyridin-3-yl)benzenesulfonamide]: 80% and 93%. For `NS(=O)(=O)c1ccc(Cn2nc(-c3ccccc3)c3cc[nH]c(=O)c32)cc1` [Example 19, 4-((7-oxo-3-phenyl-6,7-dihydro-1H-pyrazolo[3,4-c]pyridin-1-yl)methyl)benzenesulfonamide], the inhibition at 10 µM at Tyk2 is 27%; on JAK1 (test compound 10 μM, read-out: Inhibitory rate (%) JAK1 10 μM) it was 44%. `CCC(COC)n1cc(-c2ccc(CC#N)cc2)c2c(=O)[nH]ccc21` (stereo not drawn) [Example 20, (4-(1-(1-methoxybutan-2-yl)-4-oxo-4,5-dihydro-1H-pyrrolo[3,2-c]pyridin-3-yl)phenyl)acetonitrile]: the inhibition at 1 µM is 35% at Tyk2 and 59% at JAK1. Consider `COC(=O)c1cc(-c2nn(C3CCOCC3)c3cc[nH]c(=O)c23)cs1` [Example 21, methyl 4-(4-oxo-1-(tetrahydro-2H-pyran-4-yl)-4,5-dihydro-1H-pyrazolo[4,3-c]pyridin-3-yl)thiophene-2-carboxylate], for which the inhibition at 1 µM came to 95% at Tyk2 and 97% on JAK1.

For the compound `N#CCc1ccc(-c2cn(C3CCOC3)c3cc[nH]c(=O)c23)cc1` (stereo not drawn) [Example 22, (4-(4-oxo-1-(tetrahydrofuran-3-yl)-4,5-dihydro-1H-pyrrolo[3,2-c]pyridin-3-yl)phenyl)acetonitrile], the inhibition at 1 µM at Tyk2 is 53%; on JAK1, 77%. For the compound `O=C(O)c1cc(-c2nn(C3CCOCC3)c3cc[nH]c(=O)c23)cs1` [Example 23, 4-(4-oxo-1-(tetrahydro-2H-pyran-4-yl)-4,5-dihydro-1H-pyrazolo[4,3-c]pyridin-3-yl)thiophene-2-carboxylic acid], the inhibition at 1 µM on Tyk2 and on JAK1 was 98% in each case. Take `CCC(COC)n1cc(-c2ccc(C#N)cc2)c2c(=O)[nH]ccc21` (stereo not drawn) [Example 24, 4-(1-(1-methoxybutan-2-yl)-4-oxo-4,5-dihydro-1H-pyrrolo[3,2-c]pyridin-3-yl)benzonitrile]: the inhibition at 1 µM at Tyk2 stood at 33%; on JAK1, 35%.
